Our source for the IC50 values is US12655185B2, “Peptide inhibitors of interleukin-23 and their use to treat inflammatory diseases” (Protagonist Therapeutics, Inc., priority 2016, dated 2026).

Bridge positions count the residues as written; N and C are the ends. Peptide text beside a SMILES is read from it.

The first assay has as its target T1, IL-23 binding to IL23R_huFC (human IL-23R) (Homo sapiens, UniProt P29460+Q9NPF7).
T1 sequence (Q9NPF7 20-189): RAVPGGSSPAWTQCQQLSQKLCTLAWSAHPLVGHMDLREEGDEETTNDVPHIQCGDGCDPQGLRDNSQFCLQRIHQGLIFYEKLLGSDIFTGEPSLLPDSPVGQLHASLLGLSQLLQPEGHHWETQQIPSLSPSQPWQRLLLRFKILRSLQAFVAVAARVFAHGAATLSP
T1 sequence (P29460 23-328): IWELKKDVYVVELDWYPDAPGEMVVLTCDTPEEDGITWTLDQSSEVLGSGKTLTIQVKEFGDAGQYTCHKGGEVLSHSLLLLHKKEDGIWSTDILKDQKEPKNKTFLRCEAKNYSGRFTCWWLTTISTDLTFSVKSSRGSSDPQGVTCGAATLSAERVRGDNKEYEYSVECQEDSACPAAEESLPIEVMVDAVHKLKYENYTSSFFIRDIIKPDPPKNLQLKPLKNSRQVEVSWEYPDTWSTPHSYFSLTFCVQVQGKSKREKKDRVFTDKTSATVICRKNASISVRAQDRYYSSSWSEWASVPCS
The assay can be described thus: IL23-IL23R Competitive Binding ELISA.
Conditions: not given
As for the experimental part: Immulon® 4HBX plate was coated with 200 ng/well of IL23R_huFC and incubated overnight at 4° C. […] Serial dilutions of test peptides and IL-23 at a final concentration of 0.9 nM diluted in PBS were added to each well and incubated for 2 hours at room temperature. After the wells were washed, bound IL-23 was detected by incubation with 50 ng/well of goat anti-p40 polyclonal antibodies (R&D Systems #AF309) diluted in PBS for 1 hour at room temperature. The wells were again washed four times with PBST. […] The plate was finally washed as above. Signals were visualized with TMB One Component HRP Membrane Substrate, quenched with 2 M sulfuric acid and read spectrophotometrically at 450 nm.
By IC50 is commonly meant the concentration needed to halve the response being measured. The molecule `CC[C@H](C)[C@@H]1NC(=O)[C@H](CCCCN)NC(=O)[C@H](C)NC(=O)[C@H](CC(N)=O)NC(=O)[C@H](CCCNC(=N)N)NC(=O)[C@H](CCC(N)=O)NC(=O)[C@H](CCC(=O)O)NC(=O)[C@H](CCC(=O)O)NC(=O)[C@H](CC(N)=O)NC(=O)[C@H](CC(C)C)NC(=O)[C@H](CC(N)=O)NC(=O)[C@@H]2CCCN2C(=O)[C@H](CC(=O)O)NC(=O)[C@H](C)NC(=O)[C@H](C)NC(=O)[C@H](C)NC(=O)[C@H](CO)NC(=O)[C@H](Cc2ccc(O)cc2)NC(=O)[C@H](Cc2ccccc2)NC(=O)[C@H](C)NC(=O)[C@H](CC(C)C)NC(=O)[C@H](CCC(N)=O)NC(=O)[C@@H](NC(=O)[C@H](Cc2ccccc2)NC(=O)[C@H](CCSC)NC(=O)[C@H](CC(N)=O)NC(=O)[C@H](Cc2ccccc2)NC(C)=O)CSSC[C@@H](C(N)=O)NC(=O)[C@H](CC(C)C)NC(=O)[C@H](CC(=O)O)NC(=O)[C@H](CCCNC(=N)N)NC(=O)[C@H](Cc2ccccc2)NC(=O)[C@H](CO)NC(=O)[C@H](CCCCN)NC1=O` [Peptide 9] (Ac-FNMFCQLAFYSAAADPNLNEEQRNAKIKSFRDLC-NH2; disulfide 5-34) registered a concentration for half-maximal inhibition (IC50) of 10 to 100 µM.

Still in this assay, the particulars now being: inhibition of IL-23/IL-23R binding; IL-23 0.9 nM; class symbols; read-out: IC50 IL23R_huFC.
Consider `CC[C@H](C)[C@@H]1NC(=O)[C@H](CCCNC(=N)N)NC(=O)[C@H](C)NC(=O)[C@H](CC(N)=O)NC(=O)[C@H](CCCNC(=N)N)NC(=O)[C@H](CC(=O)O)NC(=O)[C@H](CCC(=O)O)NC(=O)[C@H](CCC(=O)O)NC(=O)[C@H](CC(N)=O)NC(=O)[C@H](CC(C)C)NC(=O)[C@H](CC(N)=O)NC(=O)[C@@H]2CCCN2C(=O)[C@H](CC(N)=O)NC(=O)[C@H](C)NC(=O)[C@H](C)NC(=O)[C@H](C)NC(=O)[C@H](Cc2c[nH]c3ccccc23)NC(=O)[C@H](Cc2ccc(O)cc2)NC(=O)[C@H](Cc2ccccc2)NC(=O)[C@H](CC(C)C)NC(=O)[C@H](CCCNC(=N)N)NC(=O)[C@H](CCC(N)=O)NC(=O)[C@@H](NC(=O)[C@H](Cc2ccccc2)NC(=O)[C@H](CCSC)NC(=O)[C@H](CC(N)=O)NC(=O)[C@H](Cc2ccccc2)NC(C)=O)CSSC[C@@H](C(N)=O)NC(=O)CNC(=O)[C@H](CC(=O)O)NC(=O)[C@H](CCCNC(=N)N)NC(=O)[C@H](Cc2ccccc2)NC(=O)[C@H](CO)NC(=O)[C@H](CC(C)C)NC1=O` [Peptide 3] (Ac-FNMFCQRLFYWAAANPNLNEEDRNARILSFRDGC-NH2; disulfide 5-34), for which the IC50 lay in the range of 10 to 100 µM.

In the case of `CC[C@H](C)[C@@H]1NC(=O)CNC(=O)[C@H](C)NC(=O)[C@H](CCC(=O)O)NC(=O)[C@H](C(C)C)NC(=O)[C@H](CCSC)NC(=O)[C@H](CCCNC(=N)N)NC(=O)[C@H](CCCNC(=N)N)NC(=O)[C@H](CC(C)C)NC(=O)[C@@H](NC(=O)[C@H](CCC(N)=O)NC(=O)[C@H](CCSC)NC(=O)[C@H](CC(N)=O)NC(=O)[C@H](Cc2ccccc2)NC(C)=O)CSSC[C@@H](C(N)=O)NC(=O)[C@H](CC(=O)O)NC(=O)[C@H](CC(=O)O)NC(=O)[C@H](Cc2ccccc2)NC(=O)[C@H]([C@@H](C)CC)NC(=O)[C@H](CO)NC(=O)[C@H](CCCNC(=N)N)NC(=O)[C@H]([C@@H](C)CC)NC(=O)[C@H](CCCCN)NC(=O)[C@H](C)NC(=O)[C@H](Cc2c[nH]c3ccccc23)NC(=O)[C@H](CCCNC(=N)N)NC(=O)[C@H](CCC(N)=O)NC(=O)CNC(=O)[C@H](CO)NC(=O)[C@H](CC(N)=O)NC(=O)[C@H](CC(C)C)NC(=O)[C@H](CC(N)=O)NC(=O)[C@@H]2CCCN2C(=O)[C@H](CC(=O)O)NC1=O` [Peptide 8] (Ac-FNMQCLRRMVEAGIDPNLNSGQRWAKIRSIFDDC-NH2; disulfide 5-34), the IC50 lay within 10 to 100 µM.

Turning to `CC[C@H](C)[C@@H]1NC(=O)[C@H](CCCCN)NC(=O)[C@H](C)NC(=O)[C@H](Cc2c[nH]c3ccccc23)NC(=O)[C@H](CCCNC(=N)N)NC(=O)[C@H](CCC(N)=O)NC(=O)[C@H](CCC(=O)O)NC(=O)[C@H](CCC(N)=O)NC(=O)[C@H](CC(N)=O)NC(=O)[C@H](CC(C)C)NC(=O)[C@H](CC(N)=O)NC(=O)[C@@H]2CCCN2C(=O)[C@H](CC(=O)O)NC(=O)[C@H](C(C)C)NC(=O)CNC(=O)[C@H](C)NC(=O)[C@H](CCC(=O)O)NC(=O)[C@H](CO)NC(=O)[C@H](C)NC(=O)[C@H](CCCNC(=N)N)NC(=O)[C@H](CCCNC(=N)N)NC(=O)[C@H](CC(C)C)NC(=O)[C@@H](NC(=O)[C@H](CCC(N)=O)NC(=O)[C@H](CCSC)NC(=O)[C@H](CC(N)=O)NC(=O)[C@H](Cc2ccccc2)NC(C)=O)CSSC[C@@H](C(N)=O)NC(=O)[C@H](CC(=O)O)NC(=O)[C@H](CC(=O)O)NC(=O)[C@H](CCSC)NC(=O)[C@H]([C@@H](C)CC)NC(=O)[C@H](CO)NC(=O)[C@H](CCCCN)NC1=O` [Peptide 12] (Ac-FNMQCLRRASEAGVDPNLNQEQRWAKIKSIMDDC-NH2; disulfide 5-34), the IC50 was 1 to 10 µM.

Regarding `CC[C@H](C)[C@@H]1NC(=O)[C@H](CCCCN)NC(=O)[C@H](C)NC(=O)[C@H](Cc2c[nH]c3ccccc23)NC(=O)[C@H](CCCNC(=N)N)NC(=O)[C@H](CCC(N)=O)NC(=O)[C@H](CCC(=O)O)NC(=O)[C@H](CCC(N)=O)NC(=O)[C@H](CC(N)=O)NC(=O)[C@H](CC(C)C)NC(=O)[C@H](CC(N)=O)NC(=O)[C@@H]2CCCN2C(=O)[C@H](CC(=O)O)NC(=O)[C@H](C(C)C)NC(=O)CNC(=O)[C@H](C)NC(=O)[C@H](CCC(=O)O)NC(=O)[C@H](C)NC(=O)[C@H](CCSC)NC(=O)[C@H](CCCNC(=N)N)NC(=O)[C@H](CCCNC(=N)N)NC(=O)[C@H](CC(C)C)NC(=O)[C@@H](NC(=O)[C@H](CCC(N)=O)NC(=O)[C@H](CCSC)NC(=O)[C@H](CC(N)=O)NC(=O)[C@H](Cc2ccccc2)NC(C)=O)CSSC[C@@H](C(N)=O)NC(=O)[C@H](CC(=O)O)NC(=O)[C@H](CC(=O)O)NC(=O)[C@H](CCSC)NC(=O)[C@H]([C@@H](C)CC)NC(=O)[C@H](CO)NC(=O)[C@H](CCCCN)NC1=O` [Peptide 13] (Ac-FNMQCLRRMAEAGVDPNLNQEQRWAKIKSIMDDC-NH2; disulfide 5-34), the IC50 was under 1 µM.

For `CC[C@H](C)[C@@H]1NC(=O)[C@H](CCCCN)NC(=O)[C@H](C)NC(=O)[C@H](Cc2c[nH]c3ccccc23)NC(=O)[C@H](CCCNC(=N)N)NC(=O)[C@H](CCC(N)=O)NC(=O)[C@H](CCC(=O)O)NC(=O)[C@H](CCC(N)=O)NC(=O)[C@H](CC(N)=O)NC(=O)[C@H](CC(C)C)NC(=O)[C@H](CC(N)=O)NC(=O)[C@H](C)NC(=O)[C@H](CC(=O)O)NC(=O)[C@H](C(C)C)NC(=O)CNC(=O)[C@H](C)NC(=O)[C@H](CCC(=O)O)NC(=O)[C@H](CO)NC(=O)[C@H](CCSC)NC(=O)[C@H](CCCNC(=N)N)NC(=O)[C@H](CCCNC(=N)N)NC(=O)[C@H](CC(C)C)NC(=O)[C@@H](NC(=O)[C@H](CCC(N)=O)NC(=O)[C@H](CCSC)NC(=O)[C@H](CC(N)=O)NC(=O)[C@H](Cc2ccccc2)NC(C)=O)CSSC[C@@H](C(N)=O)NC(=O)[C@H](CC(=O)O)NC(=O)[C@H](CC(=O)O)NC(=O)[C@H](CCSC)NC(=O)[C@H]([C@@H](C)CC)NC(=O)[C@H](CO)NC(=O)[C@H](CCCCN)NC1=O` [Peptide 16] (Ac-FNMQCLRRMSEAGVDANLNQEQRWAKIKSIMDDC-NH2; disulfide 5-34), the IC50 was in the range of 1 to 10 µM.

On to `CC[C@H](C)[C@@H]1NC(=O)[C@H](CCCCN)NC(=O)[C@H](C)NC(=O)[C@H](Cc2c[nH]c3ccccc23)NC(=O)[C@H](CCCNC(=N)N)NC(=O)[C@H](CCC(N)=O)NC(=O)[C@H](CCC(=O)O)NC(=O)[C@H](CCC(N)=O)NC(=O)[C@H](C)NC(=O)[C@H](CC(C)C)NC(=O)[C@H](CC(N)=O)NC(=O)[C@@H]2CCCN2C(=O)[C@H](CC(=O)O)NC(=O)[C@H](C(C)C)NC(=O)CNC(=O)[C@H](C)NC(=O)[C@H](CCC(=O)O)NC(=O)[C@H](CO)NC(=O)[C@H](CCSC)NC(=O)[C@H](CCCNC(=N)N)NC(=O)[C@H](CCCNC(=N)N)NC(=O)[C@H](CC(C)C)NC(=O)[C@@H](NC(=O)[C@H](CCC(N)=O)NC(=O)[C@H](CCSC)NC(=O)[C@H](CC(N)=O)NC(=O)[C@H](Cc2ccccc2)NC(C)=O)CSSC[C@@H](C(N)=O)NC(=O)[C@H](CC(=O)O)NC(=O)[C@H](CC(=O)O)NC(=O)[C@H](CCSC)NC(=O)[C@H]([C@@H](C)CC)NC(=O)[C@H](CO)NC(=O)[C@H](CCCCN)NC1=O` [Peptide 17] (Ac-FNMQCLRRMSEAGVDPNLAQEQRWAKIKSIMDDC-NH2; disulfide 5-34), for which the concentration for half-maximal inhibition (IC50) was 1 to 10 µM.
